# According to PMC5218480 (PLoS ONE, 2017):
# Test system: MV-4-11 cells
# Assay: Gene expression microarray analysis (Affymetrix PrimeView) and GSEA
# Assay type: cell-based, human
# Parameters: RFU PODN (11730768_x_at) / Fold change /veh PODN (11730768_x_at) / RFU LINC00158 (11744669_a_at) / Fold change /veh LINC00158 (11744669_a_at) / RFU DUSP10 (11751237_a_at) / Fold change /veh DUSP10 (11751237_a_at) / RFU ID3 (11757404_x_at) / Fold change /veh ID3 (11757404_x_at) / RFU PLEKHG5 (11737974_s_at) / Fold change /veh PLEKHG5 (11737974_s_at) / RFU LRRC4B (11730491_at) / Fold change /veh LRRC4B (11730491_at) / RFU GIMAP4 (11747438_a_at) / Fold change /veh GIMAP4 (11747438_a_at) / RFU KRT8 (11758183_x_at) / Fold change /veh KRT8 (11758183_x_at) / RFU CNN1 (11734310_a_at) / Fold change /veh CNN1 (11734310_a_at) / RFU VPS37D (11726825_at) / Fold change /veh VPS37D (11726825_at) / RFU C10orf10 (11716522_x_at) / Fold change /veh C10orf10 (11716522_x_at) / RFU KIR2DL2 /// KIR2DL4 /// KIR2DL5A /// KIR2DL5B /// KIR2DS1 /// KIR2DS2 /// KIR2DS3 /// KIR2DS4 /// KIR3DL3 /// KIR3DL3 /// KIR3DS1 (11738374_at) / Fold change /veh KIR2DL2 /// KIR2DL4 /// KIR2DL5A /// KIR2DL5B /// KIR2DS1 /// KIR2DS2 /// KIR2DS3 /// KIR2DS4 /// KIR3DL3 /// KIR3DL3 /// KIR3DS1 (11738374_at) / RFU C1QL1 (11718748_at) / Fold change /veh C1QL1 (11718748_at) / RFU TMPRSS4 (11747572_a_at) / Fold change /veh TMPRSS4 (11747572_a_at) / RFU HAMP (11756126_x_at) / Fold change /veh HAMP (11756126_x_at) / RFU RNFT2 (11725882_a_at) / Fold change /veh RNFT2 (11725882_a_at) / RFU NR4A2 (11747474_a_at) / Fold change /veh NR4A2 (11747474_a_at) / RFU ABCC12 (11746883_a_at) / Fold change /veh ABCC12 (11746883_a_at) / RFU TMEM136 (11760407_x_at) / Fold change /veh TMEM136 (11760407_x_at) / RFU CLDN22 /// WWC2 (11732394_at) / Fold change /veh CLDN22 /// WWC2 (11732394_at) / RFU HLA-DPB1 (11760878_x_at) / Fold change /veh HLA-DPB1 (11760878_x_at) / RFU SPINT1 (11716480_a_at) / Fold change /veh SPINT1 (11716480_a_at) / RFU GAP43 (11754022_s_at) / Fold change /veh GAP43 (11754022_s_at) / RFU A4GNT (11735810_at) / Fold change /veh A4GNT (11735810_at) / RFU PRB3 (11715151_x_at) / Fold change /veh PRB3 (11715151_x_at) / RFU TUBB4B (11761932_at) / Fold change /veh TUBB4B (11761932_at) / RFU CAPN14 (11732068_a_at) / Fold change /veh CAPN14 (11732068_a_at) / RFU TMCC2 (11721928_a_at) / Fold change /veh TMCC2 (11721928_a_at) / RFU IRGQ (11745062_a_at) / Fold change /veh IRGQ (11745062_a_at) / RFU FAM174B (11720279_a_at) / Fold change /veh FAM174B (11720279_a_at) / RFU TMPRSS4 (11748680_a_at) / Fold change /veh TMPRSS4 (11748680_a_at) / RFU FAM212B (11763350_a_at) / Fold change /veh FAM212B (11763350_a_at) / RFU PLEKHG5 (11743358_a_at) / Fold change /veh PLEKHG5 (11743358_a_at) / RFU ZSCAN30 (11745921_a_at) / Fold change /veh ZSCAN30 (11745921_a_at) / RFU CMKLR1 (11741424_a_at) / Fold change /veh CMKLR1 (11741424_a_at) / RFU LOC101060620 /// MAPK8IP1 (11723275_at) / Fold change /veh LOC101060620 /// MAPK8IP1 (11723275_at) / RFU SPTSSB (11747773_x_at) / Fold change /veh SPTSSB (11747773_x_at) / RFU PRSS12 (11739890_at) / Fold change /veh PRSS12 (11739890_at) / RFU BIN1 (11741810_x_at) / Fold change /veh BIN1 (11741810_x_at) / RFU WNT11 (11732464_a_at) / Fold change /veh WNT11 (11732464_a_at) / RFU C10orf10 (11716521_a_at) / Fold change /veh C10orf10 (11716521_a_at) / RFU C5orf56 (11738089_at) / Fold change /veh C5orf56 (11738089_at) / RFU CYB561 (11721691_x_at) / Fold change /veh CYB561 (11721691_x_at) / RFU ANKRD19P (11752326_a_at) / Fold change /veh ANKRD19P (11752326_a_at) / RFU OR2T12 /// OR2T33 /// OR2T8 (11738714_s_at) / Fold change /veh OR2T12 /// OR2T33 /// OR2T8 (11738714_s_at) / RFU VCAN (11748164_a_at) / Fold change /veh VCAN (11748164_a_at) / RFU JSRP1 (11732532_at) / Fold change /veh JSRP1 (11732532_at) / RFU KRTAP10-11 (11738290_x_at) / Fold change /veh KRTAP10-11 (11738290_x_at) / RFU MYO3A (11730013_a_at) / Fold change /veh MYO3A (11730013_a_at) / RFU EBF3 (11725865_a_at) / Fold change /veh EBF3 (11725865_a_at) / RFU CAMK2N1 (11719241_x_at) / Fold change /veh CAMK2N1 (11719241_x_at) / RFU C5orf56 (11738088_a_at) / Fold change /veh C5orf56 (11738088_a_at) / RFU OLFML3 (11715873_a_at) / Fold change /veh OLFML3 (11715873_a_at) / RFU LOC100653217 /// NTM (11731650_a_at) / Fold change /veh LOC100653217 /// NTM (11731650_a_at) / RFU MAPK11 (11762145_a_at) / Fold change /veh MAPK11 (11762145_a_at) / RFU FIZ1 (11724087_x_at) / Fold change /veh FIZ1 (11724087_x_at) / RFU OASL (11726364_x_at) / Fold change /veh OASL (11726364_x_at) / RFU SOX15 (11748057_x_at) / Fold change /veh SOX15 (11748057_x_at) / RFU CD79A (11719716_a_at) / Fold change /veh CD79A (11719716_a_at) / RFU HIST1H1D (11736915_at) / Fold change /veh HIST1H1D (11736915_at) / RFU CASKIN2 (11723855_a_at) / Fold change /veh CASKIN2 (11723855_a_at) / RFU LOC730098 (11760151_x_at) / Fold change /veh LOC730098 (11760151_x_at) / RFU OR4N2 (11742367_at) / Fold change /veh OR4N2 (11742367_at) / RFU PRRT2 (11749266_a_at) / Fold change /veh PRRT2 (11749266_a_at) / RFU SNX32 (11753110_a_at) / Fold change /veh SNX32 (11753110_a_at) / RFU CDHR5 (11726645_a_at) / Fold change /veh CDHR5 (11726645_a_at) / RFU RCAN1 (11760418_a_at) / Fold change /veh RCAN1 (11760418_a_at) / RFU FAM167A (11723789_a_at) / Fold change /veh FAM167A (11723789_a_at) / RFU FAM26E (11764081_at) / Fold change /veh FAM26E (11764081_at) / RFU ISYNA1 (11749810_s_at) / Fold change /veh ISYNA1 (11749810_s_at) / RFU ACY1 (11761880_at) / Fold change /veh ACY1 (11761880_at) / RFU 11764098_at / Fold change /veh 11764098_at / RFU SAMD14 (11745864_x_at) / Fold change /veh SAMD14 (11745864_x_at) / RFU NPB (11741838_a_at) / Fold change /veh NPB (11741838_a_at) / RFU TMPRSS6 (11731388_a_at) / Fold change /veh TMPRSS6 (11731388_a_at) / RFU KRTAP10-2 (11738614_at) / Fold change /veh KRTAP10-2 (11738614_at) / RFU ARHGAP8 /// PRR5-ARHGAP8 (11727945_x_at) / Fold change /veh ARHGAP8 /// PRR5-ARHGAP8 (11727945_x_at) / RFU KRTAP5-7 /// NADSYN1 (11734609_at) / Fold change /veh KRTAP5-7 /// NADSYN1 (11734609_at) / RFU RASL12 (11751679_a_at) / Fold change /veh RASL12 (11751679_a_at) / RFU CDKN2B (11736163_a_at) / Fold change /veh CDKN2B (11736163_a_at) / RFU PRF1 (11729649_at) / Fold change /veh PRF1 (11729649_at) / RFU, ZNF638 /// ZNF638-IT1 / Fold change vs veh, ZNF638 /// ZNF638-IT1 / RFU, PANK3 / Fold change vs veh, PANK3 / RFU, SH3YL1 / Fold change vs veh, SH3YL1 / RFU, ZEB2 / Fold change vs veh, ZEB2 / RFU, NRIP1 / Fold change vs veh, NRIP1 / RFU, PTTG1IP / Fold change vs veh, PTTG1IP / RFU, CAPN2 / Fold change vs veh, CAPN2 / RFU, MED14 / Fold change vs veh, MED14 / RFU, SNORA58 / Fold change vs veh, SNORA58 / RFU, C1orf63 / Fold change vs veh, C1orf63 / RFU, LRRFIP1 / Fold change vs veh, LRRFIP1 / RFU, NDUFAF7 / Fold change vs veh, NDUFAF7 / RFU, SLC12A2 / Fold change vs veh, SLC12A2 / RFU, IBTK / Fold change vs veh, IBTK / RFU, ESF1 / Fold change vs veh, ESF1 / Fold change vs veh, TMEM50B / RFU, TAOK1 / Fold change vs veh, TAOK1 / RFU, ACBD3 / Fold change vs veh, ACBD3 / RFU, TMA16 / Fold change vs veh, TMA16 / RFU, RWDD3 / Fold change vs veh, RWDD3 / RFU, BCAT1 / Fold change vs veh, BCAT1 / RFU, EDEM3 / Fold change vs veh, EDEM3 / RFU, TMEM33 / Fold change vs veh, TMEM33 / RFU, WDR75 / Fold change vs veh, WDR75 / RFU, AHCTF1 / Fold change vs veh, AHCTF1 / RFU, TFRC / Fold change vs veh, TFRC / RFU, ZDHHC17 / Fold change vs veh, ZDHHC17 / RFU, NOM1 / Fold change vs veh, NOM1 / RFU, ARL8B / Fold change vs veh, ARL8B / RFU, ZBTB11 / Fold change vs veh, ZBTB11 / RFU, TAMM41 / Fold change vs veh, TAMM41 / RFU, KIAA1704 /// LOC100996395 / Fold change vs veh, KIAA1704 /// LOC100996395 / RFU, ING1 / Fold change vs veh, ING1 / RFU, TRMT61B / Fold change vs veh, TRMT61B / RFU, FUBP3 / Fold change vs veh, FUBP3 / RFU, TP53 / Fold change vs veh, TP53 / RFU, TNKS2 / Fold change vs veh, TNKS2 / RFU, ZFP14 / Fold change vs veh, ZFP14 / RFU, ACTR2 / Fold change vs veh, ACTR2 / RFU, PPP3R1 / Fold change vs veh, PPP3R1 / RFU, PIK3R1 / Fold change vs veh, PIK3R1 / RFU, HNRNPA1 / Fold change vs veh, HNRNPA1 / RFU, RNF170 / Fold change vs veh, RNF170 / RFU, ZNF28 / Fold change vs veh, ZNF28 / RFU, RNGTT / Fold change vs veh, RNGTT / RFU, OGT / Fold change vs veh, OGT / RFU, BRD1 / Fold change vs veh, BRD1 / RFU, MARS / Fold change vs veh, MARS / RFU, ZNF655 / Fold change vs veh, ZNF655 / RFU, FAHD1 / Fold change vs veh, FAHD1 / RFU, BDP1 / Fold change vs veh, BDP1 / RFU, LRRCC1 / Fold change vs veh, LRRCC1 / RFU, ARID1A / Fold change vs veh, ARID1A / RFU, ZNF146 / Fold change vs veh, ZNF146 / RFU, ZNF330 / Fold change vs veh, ZNF330 / RFU, GPN3 / Fold change vs veh, GPN3 / RFU, C9orf123 / Fold change vs veh, C9orf123 / RFU, N4BP2L2 / Fold change vs veh, N4BP2L2 / RFU, ARFIP1 / Fold change vs veh, ARFIP1 / RFU, FAM179B / Fold change vs veh, FAM179B / RFU, BCL10 / Fold change vs veh, BCL10 / RFU, UHRF1BP1L / Fold change vs veh, UHRF1BP1L / RFU, BET1 / Fold change vs veh, BET1 / RFU, CNOT2 / Fold change vs veh, CNOT2 / RFU, ZNF268 / Fold change vs veh, ZNF268 / Fold change vs veh, ZNF507 / RFU, DGCR2 / Fold change vs veh, DGCR2 / RFU, WDSUB1 / Fold change vs veh, WDSUB1 / Fold change vs veh, HSP90B1 /// MIR3652 / RFU, ADSS / Fold change vs veh, ADSS / RFU, GK / Fold change vs veh, GK / RFU, ZNF148 / Fold change vs veh, ZNF148 / RFU, TAF9 / Fold change vs veh, TAF9 / RFU, SLC1A5 / Fold change vs veh, SLC1A5 / RFU, SLMO2 / Fold change vs veh, SLMO2 / RFU, ABCC4 / Fold change vs veh, ABCC4 / RFU, LOC101060439 /// RAP1B / Fold change vs veh, LOC101060439 /// RAP1B / RFU, RFX7 / Fold change vs veh, RFX7 / RFU, GTPBP10 / Fold change vs veh, GTPBP10 / RFU, CNEP1R1 / Fold change vs veh, CNEP1R1 / RFU, BIVM-ERCC5 /// ERCC5 / Fold change vs veh, BIVM-ERCC5 /// ERCC5 / RFU, ILF3 / Fold change vs veh, ILF3 / RFU 11762660_at / Fold change /veh 11762660_at / RFU VCAN (11757783_s_at) / Fold change /veh VCAN (11757783_s_at) / RFU DDX43 (11728927_at) / Fold change /veh DDX43 (11728927_at) / RFU KRT8 (11758188_x_at) / Fold change /veh KRT8 (11758188_x_at) / RFU NKD1 (11759106_at) / Fold change /veh NKD1 (11759106_at) / RFU SRD5A1 (11742802_a_at) / Fold change /veh SRD5A1 (11742802_a_at) / RFU TPSAB1 /// TPSB2 (11721975_s_at) / Fold change /veh TPSAB1 /// TPSB2 (11721975_s_at) / RFU GSTM3 (11746129_a_at) / Fold change /veh GSTM3 (11746129_a_at) / RFU IL23R (11737362_x_at) / Fold change /veh IL23R (11737362_x_at) / RFU TMEM51 (11727254_a_at) / Fold change /veh TMEM51 (11727254_a_at) / RFU PIWIL2 (11732686_x_at) / Fold change /veh PIWIL2 (11732686_x_at) / RFU ORM1 (11744905_x_at) / Fold change /veh ORM1 (11744905_x_at) / RFU CCDC152 (11743942_at) / Fold change /veh CCDC152 (11743942_at) / RFU ECM1 (11717891_a_at) / Fold change /veh ECM1 (11717891_a_at) / RFU IL23R (11748794_a_at) / Fold change /veh IL23R (11748794_a_at) / RFU TNFAIP8L3 (11732012_x_at) / Fold change /veh TNFAIP8L3 (11732012_x_at) / RFU MBOAT4 (11741988_at) / Fold change /veh MBOAT4 (11741988_at) / RFU 11764193_at / Fold change /veh 11764193_at / RFU TMEM53 (11763286_at) / Fold change /veh TMEM53 (11763286_at) / RFU MAGEB2 (11727129_at) / Fold change /veh MAGEB2 (11727129_at) / RFU TMEM200A (11744735_a_at) / Fold change /veh TMEM200A (11744735_a_at) / RFU CCDC152 (11751479_a_at) / Fold change /veh CCDC152 (11751479_a_at) / RFU FAM211A (11726209_a_at) / Fold change /veh FAM211A (11726209_a_at) / RFU RGS16 (11746705_a_at) / Fold change /veh RGS16 (11746705_a_at) / RFU VCAN (11755009_s_at) / Fold change /veh VCAN (11755009_s_at) / RFU RHOB (11743442_s_at) / Fold change /veh RHOB (11743442_s_at) / RFU RGS16 (11720943_a_at) / Fold change /veh RGS16 (11720943_a_at) / RFU RGS16 (11720944_at) / Fold change /veh RGS16 (11720944_at) / RFU, VPS4B / Fold change vs veh, VPS4B / RFU, CREB1 / Fold change vs veh, CREB1 / RFU, DNAJC13 / Fold change vs veh, DNAJC13 / RFU, GNAQ / Fold change vs veh, GNAQ / RFU, CDK5R1 / Fold change vs veh, CDK5R1 / RFU, ZRANB3 / Fold change vs veh, ZRANB3 / RFU, CUL4A / Fold change vs veh, CUL4A / RFU, CCNY / Fold change vs veh, CCNY / RFU, UFL1 / Fold change vs veh, UFL1 / RFU, COG3 / Fold change vs veh, COG3 / RFU, DIAPH2 / Fold change vs veh, DIAPH2 / RFU, SKA2 / Fold change vs veh, SKA2 / RFU, AFF3 / Fold change vs veh, AFF3 / RFU, LMF1 / Fold change vs veh, LMF1 / RFU, IPO11 / Fold change vs veh, IPO11 / RFU, DFFB / Fold change vs veh, DFFB / RFU, FOXP1 / Fold change vs veh, FOXP1 / RFU, CARD8 / Fold change vs veh, CARD8 / RFU, STRN3 / Fold change vs veh, STRN3 / RFU, ADK / Fold change vs veh, ADK / RFU, RASSF2 / Fold change vs veh, RASSF2 / RFU, WIPF1 / Fold change vs veh, WIPF1 / RFU, LARP1B / Fold change vs veh, LARP1B / RFU, RASA1 / Fold change vs veh, RASA1 / RFU, RB1 / Fold change vs veh, RB1 / RFU, PPFIA1 / Fold change vs veh, PPFIA1 / RFU, MAT2A / Fold change vs veh, MAT2A / RFU, CCT5 / Fold change vs veh, CCT5 / RFU, WDR92 / Fold change vs veh, WDR92 / RFU, CUX1 / Fold change vs veh, CUX1 / RFU, TTC7A / Fold change vs veh, TTC7A / RFU, TMEM135 / Fold change vs veh, TMEM135 / RFU, DEPTOR / Fold change vs veh, DEPTOR / RFU, CPM / Fold change vs veh, CPM / RFU, DNAJB6 / Fold change vs veh, DNAJB6 / RFU, CACNA2D3 / Fold change vs veh, CACNA2D3 / RFU, DTX4 / Fold change vs veh, DTX4 / RFU, TFCP2 / Fold change vs veh, TFCP2 / RFU, GMCL1 /// GMCL1P1 / Fold change vs veh, GMCL1 /// GMCL1P1 / RFU, AEBP2 / Fold change vs veh, AEBP2 / RFU, SNHG1 /// SNORD22 /// SNORD25 /// SNORD26 /// SNORD27 /// SNORD28 /// SNORD29 /// SNORD31 / Fold change vs veh, SNHG1 /// SNORD22 /// SNORD25 /// SNORD26 /// SNORD27 /// SNORD28 /// SNORD29 /// SNORD31 / Fold change (Aza/veh), C12orf56 (ProbeSet 11735607_a_at) / Fold change (ACY-1035/veh), C12orf56 (ProbeSet 11735607_a_at) / Fold change (Aza/veh), FGFR1OP (ProbeSet 11751329_s_at) / Fold change (ACY-1035/veh), FGFR1OP (ProbeSet 11751329_s_at) / Fold change (Aza/veh), VPS36 (ProbeSet 11739960_a_at) / Fold change (ACY-1035/veh), VPS36 (ProbeSet 11739960_a_at) / RFU SYPL1 (11715823_x_at) / Fold change /veh SYPL1 (11715823_x_at) / RFU IGFBP7 (11715501_s_at) / Fold change /veh IGFBP7 (11715501_s_at) / RFU REEP3 (11722064_at) / Fold change /veh REEP3 (11722064_at) / RFU IGLL1 (11728026_x_at) / Fold change /veh IGLL1 (11728026_x_at): dose or concentration left out as unconfirmed
# Conditions: MV-4-11 cells, 48 hours
structure (smiles),measurement,value
Nc1ncn([C@@H]2O[C@H](CO)[C@@H](O)[C@H]2O)c(=O)n1 [azacitidine],Fold change /veh DDX43 (11728927_at),1.23
